Experimental data from the supplement of paper PMC4862054.

Tests used:
Details in all cases: incubation time: 72 h
BT-549 [1] = experiment: drug sensitivity score (DSS), CellTox Green (DSS (AUC-based score)); higher = stronger drug effect (viability inhibition or cytotoxicity); extreme values may be limits of the assay
Method in brief: (§1)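 For 72 h, breast cancer cell lines seeded at 20 µl suspension per well in 384-well plates were incubated with compound at 5 concentrations in 10-fold steps spanning a 10,000-fold range that differed by compound. The first reading was CellTox Green fluorescence at 485/520 nm, and the second was CellTiter-Glo luminescence after 10 min at room temperature. Both were normalised per plate to 0.1 % DMSO and a positive kill control, and the drug sensitivity score was obtained from the area under the fitted dose-response curve.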

CAL-120 [2] = experiment: as above
Method in brief: as §1

CAL-148 [3] = experiment: as above
Method in brief: as §1

CAL-85-1 [4] = experiment: as above
Method in brief: as §1

DU-4475 [5] = experiment: as above
Method in brief: as §1

Hs578T [6] = experiment: as above
Method in brief: as §1

MCF-10A = experiment: as above
Method in brief: as §1

MDA-MB-468 [7] = experiment: as above
Method in brief: as §1

HCC1937 [8] = experiment: as above
Method in brief: as §1

BT-474 = experiment: drug sensitivity score (DSS), CellTiter-Blue viability (DSS (AUC-based score)); higher = stronger viability inhibition; extreme values may be limits of the assay
Description: (§2)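 DSRT with the CellTiter-Blue (resazurin reduction) viability readout, fluorescence 560/590 nm, 72 h incubation. Plates were normalised to DMSO and benzethonium chloride controls. DSS is computed from the area under the fitted dose-response curve (5 or 9 concentrations).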

BT-549 [9] = experiment: as above
Description: as §2

CAL-120 [10] = experiment: as above
Description: as §2

CAL-148 [11] = experiment: as above
Description: as §2

CAL-51 = experiment: as above
Description: as §2

CAL-85-1 [12] = experiment: as above
Description: as §2

DU-4475 [13] = experiment: as above
Description: as §2

HCC1143 = experiment: as above
Description: as §2

HCC1599 = experiment: as above
Description: as §2

HCC1937 [14] = experiment: as above
Description: as §2

HDQ-P1 = experiment: as above
Description: as §2

Hs578T [15] = experiment: as above
Description: as §2

MDA-MB-231 = experiment: as above
Description: as §2

MDA-MB-436 = experiment: as above
Description: as §2

MDA-MB-468 [16] = experiment: as above
Description: as §2

MFM-223 = experiment: as above
Description: as §2

SK-BR-3 = experiment: as above
Description: as §2

Measured: drug sensitivity score

O=C(O)c1ccc(-c2c[nH]c3ncc(-c4ccccc4)cc23)cc1C1CCCC1
0: BT-549 [1] | CAL-120 [2] | CAL-148 [3] | CAL-85-1 [4] | DU-4475 [5] | Hs578T [6] | MCF-10A | MDA-MB-468 [7]

NC(=O)Nc1cc(-c2cccc(F)c2)sc1C(=O)N[C@H]1CCCNC1 [AZD7762]
12.9: CAL-85-1 [4]
0: BT-549 [1] | CAL-120 [2] | CAL-148 [3] | DU-4475 [5] | HCC1937 [8] | MCF-10A
17.4: Hs578T [6]
6.89: MDA-MB-468 [7]

NC(=O)Nc1cc(-c2cccc(F)c2)sc1C(=O)N[C@H]1CCCNC1 [AZD 7762]
1.83: MDA-MB-231
2.2: CAL-148 [11]
1.6: HCC1143
0: BT-474 | MFM-223
2.17: CAL-120 [10]
2.46: DU-4475 [13]
3.34: HDQ-P1
2.52: MDA-MB-468 [16]
5.44: MDA-MB-436
1.54: BT-549 [9]
4.87: SK-BR-3
5.73: Hs578T [15]
2.04: HCC1937 [14]
5.69: HCC1599
6.01: CAL-85-1 [12]
2.84: CAL-51

NCC(=O)CCC(=O)O [Aminolevulinic acid]
not listed: BT-549 [1] | CAL-120 [2] | CAL-148 [3] | CAL-85-1 [4] | DU-4475 [5] | Hs578T [6] | MCF-10A | MDA-MB-468 [7] | HCC1937 [8]
0: all other assays above

CCN(CCCOc1ccc2c(Nc3cc(CC(=O)Nc4cccc(F)c4)[nH]n3)ncnc2c1)CCOP(=O)(O)O [Barasertib]
4.42: CAL-85-1 [12]
5.75: BT-549 [9]
8.21: CAL-120 [10]
9.75: HCC1937 [14]
20.5: CAL-148 [11]
0: BT-474 | HCC1143 | HCC1599 | HDQ-P1 | MDA-MB-436 | MFM-223 | SK-BR-3
12.1: MDA-MB-468 [16]
3.7: MDA-MB-231
4.75: DU-4475 [13]
7.48: Hs578T [15]
8.86: CAL-51

Cn1c(CCCC(=O)O)nc2cc(N(CCCl)CCCl)ccc21 [Bendamustine]
0.0662: SK-BR-3
4.02: MDA-MB-468 [7]
not listed: Hs578T [6]
0: all other assays above

C=C(c1ccc(C(=O)O)cc1)c1cc2c(cc1C)C(C)(C)CCC2(C)C [Bexarotene]
2.11: HCC1937 [14]
1.2: CAL-148 [11]
not listed: Hs578T [6]
0: all other assays above

CC(=O)Nc1ccc(C(=O)Nc2ccccc2N)cc1 [CI-994]
not listed: BT-549 [1] | CAL-120 [2] | CAL-148 [3] | CAL-85-1 [4] | DU-4475 [5] | Hs578T [6] | MCF-10A | MDA-MB-468 [7] | HCC1937 [8]
0: all other assays above

N.N.[Cl][Pt][Cl] [Cisplatin]
not listed: MDA-MB-468 [7]
0: all other assays above

COc1cc2ncnc(Nc3ccc(F)c(Cl)c3)c2cc1NC(=O)/C=C/CN1CCCCC1 [Dacomitinib]
4.64: CAL-85-1 [4]
0: BT-549 [1] | CAL-120 [2] | CAL-148 [3] | DU-4475 [5] | HCC1937 [8] | Hs578T [6] | MCF-10A | MDA-MB-468 [7]

C[C@]12CC[C@@H]3c4ccc(O)cc4C[C@@H](CCCCCCCCC[S+]([O-])CCCC(F)(F)C(F)(F)F)[C@H]3[C@@H]1CC[C@@H]2O (some centres not stated) [Fulvestrant]
1.05: MFM-223
not listed: MDA-MB-468 [7]
0: all other assays above

O=P1(NCCCl)OCCCN1CCCl (configuration not stated) [Ifosfamide]
0.736: BT-549 [1]
not listed: HCC1937 [8]
0: all other assays above

CC(C)Cn1cnc2c(N)nc3ccccc3c21 [Imiquimod]
0.506: BT-549 [1]
1.01: CAL-85-1 [4]
3.54: MDA-MB-468 [7]
not listed: Hs578T [6]
0: all other assays above

N#CCNC(=O)c1ccc(-c2ccnc(Nc3ccc(N4CCOCC4)cc3)n2)cc1 [Momelotinib]
0: CAL-120 [2] | CAL-148 [3] | DU-4475 [5] | HCC1937 [8] | Hs578T [6] | MCF-10A
2.78: BT-549 [1]
2.22: MDA-MB-468 [7]
4.03: CAL-85-1 [4]

CCCCCCCCCCCCCCCCCCOP(=O)([O-])OC1CC[N+](C)(C)CC1 [Perifosine]
0: BT-549 [1] | CAL-120 [2] | CAL-148 [3] | CAL-85-1 [4] | DU-4475 [5] | HCC1937 [8] | Hs578T [6] | MCF-10A | MDA-MB-468 [7]

Cc1ccc(C(=O)Nc2ccc(CN3CCN(C)CC3)c(C(F)(F)F)c2)cc1C#Cc1cnc2cccnn12 [Ponatinib]
0.922: CAL-148 [11]
2.44: HCC1599
14.6: MFM-223
4.79: HDQ-P1
7.25: CAL-120 [10]
0: BT-474 | CAL-85-1 [12] | DU-4475 [13] | HCC1143 | HCC1937 [14] | MDA-MB-436 | MDA-MB-468 [16] | SK-BR-3
0.903: BT-549 [9]
3.79: CAL-51
7.46: MDA-MB-231
0.512: Hs578T [15]

Cn1c(Nc2ccc(C(F)(F)F)cc2)nc2cc(Oc3ccnc(-c4ncc(C(F)(F)F)[nH]4)c3)ccc21 [RAF265]
6.51: CAL-120 [10]
7.68: HCC1143
3.43: CAL-51
2.55: MDA-MB-436
5.45: MFM-223
9.94: HDQ-P1
5.55: BT-549 [9]
9.17: BT-549 [1]
4.12: HCC1937 [14]
0.566: MDA-MB-468 [16]
4.33: CAL-85-1 [4]
1.15: Hs578T [15]
3.23: DU-4475 [13]
4.5: MDA-MB-231
not listed: MCF-10A
0: all other assays above

CS(=O)(=O)c1ccc(C2=C(c3ccccc3)C(=O)OC2)cc1 [Rofecoxib]
1.95: HCC1937 [8]
3.77: MDA-MB-468 [7]
0: BT-549 [1] | CAL-120 [2] | CAL-148 [3] | CAL-85-1 [4] | DU-4475 [5] | Hs578T [6] | MCF-10A

O=C(CCCCCCC(=O)Nc1ccc([C@H]2O[C@@H](CSc3nc(-c4ccccc4)c(-c4ccccc4)o3)C[C@@H](c3ccc(CO)cc3)O2)cc1)NO [Tubacin]
10.6: HCC1937 [8]
5.67: CAL-85-1 [4]
0.503: Hs578T [6]
0: BT-549 [1] | CAL-120 [2] | CAL-148 [3] | DU-4475 [5] | MCF-10A | MDA-MB-468 [7]
